Read-outs that look alike come from different tables or passages of the source.
Tests used:
[1] = system: NCI-H522, HT-1080, and MDA-MB-231 cells; assay: Cytotoxicity screening of CETZOLE probes and negative controls; assay type: cell-based; conditions: 20 μM maximum concentration
Excerpt: The benzophenone bromo-alkane 28e was obtained by selective EDC coupling of diaminobenzophenone 31 with 4-pentynoic acid 32 to obtain amide 33, followed by dropwise addition of bromoacetyl bromide 30 to a solution of 33 and TEA in DCM. To obtain intermediate 28f, Boc-protection of methyl 2-amino-5-bromobenzoate 34 to get 35, followed by installing an azide group at the para position employing Markiewicz and Helquist conditions, gave the azide 36. This was subjected to saponification followed by EDC coupling with propargyl amine 38 to obtain 39. Boc deprotection to get 40 was followed by acylation of the resulting amine with bromoacetyl bromide 30 afforded the bromo alkane 28f. They were screened for activity on NCI-H522, HT-1080, and MDA-MB-231 cells prior to using in target identification.
A similar cytotoxicity trend was observed on HT-1080 and MDA-MB-231 cancer cell lines.
Cell lines were cultured in a humidified atmosphere containing 10% CO2 in Dulbecco's modified Eagle's medium (Mediatech, Inc) supplemented with 10% fetal bovine serum (Atlanta Biologicals). […] Plates were rinsed and retained dye was quantified by spectrophotometry. Absorbance was normalized to DMSO and given as 1 or 100% for cell viability. […] Statistical significance was assessed using the Student's t test. […]

[2] = system: NCI-H522 cells; assay: Cytotoxicity (methylene blue cell viability), NCI-H522; assay type: cell-based, human; conditions: Homo sapiens
Protocol: (§1) Having synthesized the CETZOLE analogs, their cytotoxic activity was evaluated. […] NCI-H522 RV-GFP is the corresponding control with RV-GFP tag, but without SLC7A11 overexpression. […] The cytotoxicity screening was conducted as described previously.
(§2) Cell lines were cultured in a humidified atmosphere containing 10% CO2 in Dulbecco's modified Eagle's medium (Mediatech, Inc) supplemented with 10% fetal bovine serum (Atlanta Biologicals). Cell types used MEFs, HT1080 (human fibrosarcoma cells), NARF2 (osteosarcoma), WI-38 (human embryonic lung fibroblast), MDA MB 231 (breast cancer), HCT-116 (human colon), and NCI-H522 (Non-Small Cell Lung Cancer) cell lines. To determine viability throughout these examples, 5,000 cells were plated per well of a 96-well plate and drugs were added 1 day later. Cells were stained 1 to 3 days later with a saturated solution of methylene blue in 50% ethanol. Plates were rinsed and retained dye was quantified by spectrophotometry. Absorbance was normalized to DMSO and given as 1 or 100% for cell viability. Results are representative of at least two independent experiments. Statistical significance was assessed using the Student's t test. All commercially available chemicals were obtained from Cayman Chemicals unless otherwise noted.

[3] = system: HT-1080 cells; assay: Cytotoxicity (methylene blue cell viability), HT-1080; assay type: cell-based, human; conditions: Homo sapiens
Protocol: as §1, §2

[4] = system: MDA-MB-231 cells; assay: Cytotoxicity (methylene blue cell viability), MDA-MB-231; assay type: cell-based; conditions: Homo sapiens
Protocol: as §1, §2

[5] = system: HeLa cells; assay: Cellular localization of probes by bio-imaging; assay type: cell-based; conditions: 37° C. one hour, TAMRA-PEG-3-azide click
Protocol: FIGS. 17A-17E: Cellular localization of CETZOLE probes. […] Cells were incubated with the respective agent, permeabilized, subjected to TAMRA-PEG3 azide ligation, and viewed under microscope.
The thiazole alkyne pharmacophore undergoes thiol addition. Therefore, PPd is believed to interact covalently with the target protein, and the propargyl alkyne serves as a clickable bio-orthogonal handle for attaching reporter tags. On the other hand, PPe has a photoactivatable benzophenone moiety that covalently binds to the target protein(s) upon photo irradiation. Bio-imaging experiments were conducted to determine the spatial localization of CETZOLE probes in HeLa cells using fluorescent reporter tags. For this, HeLa cells were incubated with probe PPd and the negative control NPd (FIG. 17A) at 37° C. for one-hour. The cells were washed with cold PBS, fixed with formaldehyde (5%), permeabilized with triton-X, and subjected to bioorthogonal click reaction with TAMRA-PEG-3-azide in the presence of tris-hydroxypropyltriazolylmethylanine (THPTA), copper (II) sulfate (CuSO4), and sodium ascorbate. After multiple washings, cells were transferred on to a microscope viewing slide, stained with Hoechst dye, and observed under Olympus microscope (FIGS. 17C-17E).

[6] = system: NCI-H522 cells; assay type: cell-based; conditions: human, 3 days
Excerpt: FIGS. 10A-10C: Results of live cell imaging.
FIG. 16: Evaluation of ferroptosis-inducing character of CETZOLE probes. A three-day ferroptosis rescue assay of NCI-H522 cells treated with DMSO, 1, RSL3, and CETZOLE analogs, and liproxstatin-1 co-treatment, showing significant ferroptosis inducing probes.
The live cell montage images in FIG. 10A show notable ferroptosis-related morphological changes, such as membrane breakage and floating cell debris in the medium. The NCI-H522 cell viability improved overall when cells were co-treated with the radical scavenger liproxstatin-1 (FIG. 10C). […] To confirm this, flow-cytometry was performed to quantify lipid peroxidation using redox-active BODIPY-C11 (FIGS. 11A-11E).
Overall, CETZOLE probes do induce radical-mediated cell death and are therefore indeed ferroptotic agents.
as §2, with “noted. Compound CETZOLE 1 and the analogs were synthesized as highlighted.” for “noted.”

[7] = system: ovarian cancer cell line IGROV1; assay: NCI 60 cell line assay, single dose, IGROV1; assay type: cell-based, human; conditions: single dose of 10 μM
Protocol: (§3) The cell lines used in this assay belonged to leukemia, non-small-cell lung cancer, colon cancer, CNS cancer, melanoma, ovarian cancer, renal cancer, prostate cancer, and breast cancer. The compounds were first tested at a single dose of 10 μM. Analogue 20a was the most cytotoxic with a mean percentage growth of 1.24 (FIG. 13A). […] Analogs 20a and 23 were further tested in the NCI dose response assay ([…]).

[8] = system: renal cancer cell line UO-31; assay: NCI 60 cell line assay, single dose, UO-31; assay type: cell-based, human; conditions: single dose of 10 μM
Protocol: as §3

[9] = system: NARF2 cells; assay: Cytotoxicity (methylene blue cell viability), NARF2; assay type: cell-based, human; conditions: Homo sapiens; Table 1; NARF2 osteosarcoma cells; read-out: Half maximal inhibitory concentration (IC50), NARF2
Protocol: as §1, §2

[10] = system: NCI-H522 GFP-SLC7A11 #8 cells; assay: Cytotoxicity (methylene blue cell viability), NCI-H522 clone overexpressing GFP-SLC7A11; assay type: cell-based, human; conditions: Homo sapiens; Table 1; NCI-H522 clone overexpressing GFP-tagged SLC7A11; read-out: Half maximal inhibitory concentration (IC50), NCI-H522 GFP-SCL7A11 #8
Protocol: as §1, §2

[11] = system: NCI-H522 and HT-1080 cancer cell lines, WI38 and MEFs normal cell lines; assay: Selective cytotoxicity assay at a single concentration; assay type: cell-based; design: dose or concentration left out as unconfirmed; conditions: NCI-H522, HT-1080, WI38, MEFs
Protocol: Overall, WI38 cells were the most tolerant to the treatment, whereas MEF cells were partially tolerant and relatively less sensitive than both NCI-H522 and HT-1080 cells. To determine cytotoxicity at a therapeutically more relevant concentration, cells were treated at a single concentration of […] (FIG. 12).
as §2, with “noted. Compound CETZOLE 1 and the analogs were synthesized as highlighted.” for “noted.”

[12] = system: WI38 cells; assay: Cytotoxicity on normal cell line WI38; assay type: cell-based, human; conditions: Homo sapiens, WI-38; Table 2; lung tissue fibroblast; read-out: Half maximal inhibitory concentration (IC50), Normal Cell Line WI38
Protocol: (§4) To determine cytotoxicity at a therapeutically more relevant concentration, cells were treated at a single concentration of […] (FIG. 12).
as §2

[13] = system: NCI-H522 RV-GFP cells; assay: Cytotoxicity (methylene blue cell viability), NCI-H522 RV-GFP control clone; assay type: cell-based, human; conditions: Homo sapiens, NCI-H522; Table 1; control clone with RV-GFP tag; read-out: Half maximal inhibitory concentration (IC50), NCI-H522 Rv-GFP
Protocol: as §1, §2

[14] = system: MEFs (Mouse Embryonic Fibroblasts); assay: Cytotoxicity on normal cell line MEFs; assay type: cell-based; conditions: Fibroblast; Table 2; Mouse Embryonic Fibroblasts; read-out: Half maximal inhibitory concentration (IC50), Normal Cell Line Mefs
Protocol: as §4, §2

[15] = system: 60 human cancer cell lines; assay: NCI 60 human cancer cell line assay, single dose; assay type: cell-based; conditions: single dose of 10 μM, 60 cell lines
Protocol: (§5) The cell lines used in this assay belonged to leukemia, non-small-cell lung cancer, colon cancer, CNS cancer, melanoma, ovarian cancer, renal cancer, prostate cancer, and breast cancer. The compounds were first tested at a single dose of 10 μM.

[16] = system: leukemia, ovarian cancer, and renal cancer cell lines; assay: NCI dose response assay; assay type: cell-based, human
Protocol: as §5

[17] = system: renal cancer cell line 786-0; assay: NCI 60 cell line assay, single dose, 786-0; assay type: cell-based, human; conditions: single dose of 10 μM
Protocol: as §3

[18] = system: NCI-H522 cells; assay: Flow cytometry BODIPY-C11 lipid ROS measurement; assay type: cell-based, human
Protocol: The total cell counts are represented by the area under the graph.
NCI-H522 cells were seeded at 1.5×10^5 cells per 9-cm plate. The next media was replaced with fresh media before treated with drugs along with BODIPY581/591-C11 dye (0.5 μM) (Thermo Fisher). […], and resuspended in 2% FBS containing 1×PBS. Cells were analyzed in FITC channel using a BD LSR Fortessa FAC Scanner. Twenty thousand events per condition were analyzed from three independent samples. The experiments were performed twice, each time with triplicate samples (n=6). Collected data were processed with FlowJo v10 software. Lipid ROS measurement in TR9-7 or NARF2 cells was performed similarly at the indicated conditions as mentioned in the respective figure legends. Where appropriate, dead cells were excluded by gating. When gates were applied, they were identical across samples within an experiment.

[19] = NCI-H522, Table 3, probes and negative controls, read-out: IC50, NCI-H522
[20] = HT-1080, Table 3, probes and negative controls, read-out: IC50, HT-1080
[21] = MDA-MB-231, Table 3, probes and negative controls, read-out: IC50, MDA-MB-231
[22] = NCI-H522, Table 2, read-out: Half maximal inhibitory concentration (IC50), Cancer Cell Line NCI-H522
[23] = Table 1, NCI-H522 cancer cell line, read-out: Half maximal inhibitory concentration (IC50), NCI-H522
[24] = HT-1080, Table 2, read-out: Half maximal inhibitory concentration (IC50), Cancer Cell Line HT1080
[25] = Table 1, HT-1080 fibrosarcoma cell line, read-out: Half maximal inhibitory concentration (IC50), HT-1080
[26] = Table 1, MDA-MB-231 breast cancer cell line, read-out: Half maximal inhibitory concentration (IC50), MDA-MB-231

## C#Cc1nc(C2=C(C)C(=O)/C(=N/OCC(=O)Nc3ccc4oc(=O)c(C)cc4c3)C2)cs1 [PPc, (E)-2-(((4-(2-Ethynylthiazol-4-yl)-3-methyl-2-oxocyclopent-3-en-1-ylidene)amino)oxy)-N-(3-methyl-2-oxo-2H-chromen-6-yl)acetamide]
[1]
  cytotoxicity at maximum concentration tested: did not induce any cytotoxicity
[2]; [19]
  IC50: > 20 µM
[3]; [20]
  IC50: > 20 µM
[4]; [21]
  IC50: > 20 µM

## C#CCO/N=C1\CC(c2csc(C#C)n2)=C(C)C1O (centres unmarked) [PPd, 4-(2-Ethynylthiazol-4-yl)-2-hydroxy-3-methylcyclopent-3-en-1-one 0-prop-2-yn-1-yl oxime]
[2]; [19]
  IC50: 2.31 ± 1.08 µM
[3]; [20]
  IC50: 1.17 ± 0.12 µM
[5]
  spatial localization of probe: intense intracellular aggregation of probe in the nucleus and vacuoles
[4]; [21]
  IC50: 2.7 ± 0.72 µM
[6]
  cell viability on liproxstatin-1 co-treatment (rescue): 75%

## C#Cc1nc(C2=C(C)C(OC(C)=O)/C(=N/OC(C)=O)C2)cs1 (centres unmarked) [compound 20a, (E)-5-(Acetoxyimino)-3-(2-ethynylthiazol-4-yl)-2-methylcyclopent-2-en-1-yl acetate]
[7]
  percentage growth, IGROV1: −95%
[8]
  percentage growth, UO-31: −95%
[9]
  IC50: 7.26 ± 2.01 µM
[2]; [22]
  IC50: 0.17 ± 0.08 µM
[2]; [23]
  IC50: 0.17 ± 0.08 µM
[10]
  IC50: 1.59 ± 0.49 µM
[11]
  cell death at a single concentration: killed only the cancer cell lines NCI-H522 and HT-1080
[3]; [24]
  IC50: 0.14 ± 0.06 µM
[3]; [25]
  IC50: 0.14 ± 0.06 µM
[12]
  IC50: 1.53 ± 0.36 µM
[4]; [26]
  IC50: 0.23 ± 0.02 µM
[13]
  IC50: 0.26 ± 0.11 µM
[14]
  IC50: 0.12 ± 0.06 µM
[15]
  mean percentage growth: 1.24
[6]
  cell viability on liproxstatin-1 co-treatment (rescue): 60%
[16]
  sensitivity of cell lines in dose response assay: particularly sensitive
[17]
  percentage growth, 786-0: −95%

## C#Cc1nc(C2=C(C)/C(=N/OCc3ccccc3)CC2)cs1 [compound 23, (E)-3-(2-Ethynylthiazol-4-yl)-2-methylcyclopent-2-en-1-one O-benzyl oxime]
[9]
  IC50: 19.3 ± 5.9 µM
[2]; [22]
  IC50: 1.36 ± 0.11 µM
[2]; [23]
  IC50: 1.36 ± 0.11 µM
[10]
  IC50: 2.41 ± 1.16 µM
[18]; NCI-H522
  speed of cell death (area under graph): induced slower cell death
[18]; NCI-H522, BODIPY-C11, 3 hours
  lipid peroxidation compared to DMSO: induced lipid peroxidation
[11]
  cell death at a single concentration: did not induce cell death
[3]; [24]
  IC50: 0.81 ± 0.14 µM
[3]; [25]
  IC50: 0.81 ± 0.14 µM
[12]
  IC50: 2.51 ± 0.81 µM
[4]; [26]
  IC50: 4.17 ± 0.39 µM
[13]
  IC50: 2.54 ± 0.44 µM
[14]
  IC50: 1.09 ± 0.46 µM
[15]
  mean percentage growth: 27.24
[6]
  cell viability on liproxstatin-1 co-treatment (rescue): 85%

Source: patent publication US20260199297A1, “FERROPTOSIS INDUCERS TO TREAT CANCER” (The University of Toledo, priority 2022, published 2026)
